Active and inactive are the calls of the source.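 Rule for the calls: active = IC50 below a set limit in both duplicate runs and mean IC50 below a set limit; inconclusive = IC50 above a set limit in only one run; inactive = IC50 above a set limit in both runs and mean.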

Results on 107 molecules are retold here after PubChem BioAssay AID463178 (University of Pittsburgh Molecular Library Screening Center, 2010).

This test concerns Jurkat FADD-/- TNF-alpha necroptosis, CellTiter-Glo ATP, 24 h. Put plainly: rescue of FADD-deficient Jurkat cells, IC50 – duplicate IC50, dose response (AID 463178).
Consider `Cc1csc(SCC(=O)NC(=O)NC2CCCC2)n1`, for which the concentration for half-maximal inhibition (IC50) – broadly, the concentration at which inhibition is half-maximal – is 12.2 µM.
The value for `Fc1ccc(NC(=S)N2N=CCC2c2ccccc2)cc1` (configuration not stated) was 3.38 µM; that for `O=S(=O)(Nc1ccccc1)c1ccc2c(c1)CCO2` was 9.75 µM; that for `CCn1c([N+](=O)[O-])nc2c1c(=O)[nH]c(=O)n2C` was > 20 µM (inactive).
Then `O=[N+]([O-])c1ccc(Nc2ccc(F)cc2)nc1`, with 14.6 µM.
In the case of `OC(c1ccccc1)c1nc2ccccc2s1` (configuration not stated), the IC50 is 14.6 µM.
The value for `O=S(=O)(c1cccc2cccnc12)N1CCN(c2ccc(F)cc2)CC1` was > 20 µM (inactive).
Then `N#CCSc1nc2sc3c(c2c(=O)n1C1CCCCC1)CCCC3`, with > 20 µM (inactive); and `O=C(CSCc1ccc([N+](=O)[O-])cc1)NC1CCCCCC1`, with 10 µM.
The value for `CCC(C)c1ccc(O)c(NC(=O)c2cncc(Br)c2)c1` (configuration not stated) was > 20 µM (inactive).
As to `Cc1ccc(C(=O)NC(C#N)=C(Cl)Cl)cc1`, the IC50 was > 20 µM (inactive).
In the case of `COc1ccc(NC(=S)N2N=CCC2c2ccccc2)cc1` (configuration not stated), the concentration for half-maximal inhibition (IC50) was 12.9 µM.
Then `O=C(Nc1cccc(Cl)c1)N1N=CCC1c1ccccc1` (configuration not stated), with 1.28 µM; and `O=C(CSc1nnc2n1CCCN2C(=S)Nc1ccc(Cl)cc1)c1ccccc1`, with > 20 µM (inactive); and `O=C(Nc1ncc(Cc2ccccc2)s1)C1COc2ccccc2O1` (configuration not stated), with > 20 µM (inactive).
The value for `c1ccc(CSc2nnc(-c3ccco3)o2)cc1` was 17.3 µM; that for `O=C(Nc1ccccc1)N1N=CCC1c1ccccc1` (configuration not stated) was 1.48 µM; that for `COC(C(=O)Nc1ccc(F)cc1F)c1ccccc1` (configuration not stated) was 0.969 µM.
The value for `O=C(NNc1c(Cl)cccc1Cl)C1CCC1` was 9.85 µM; that for `CCn1c(O)c(C=NCc2ccccc2)sc1=S` was > 20 µM (inactive); that for `O=C(Nc1ccc(Cl)c(Cl)c1)N1N=CCC1c1ccccc1` (configuration not stated) was 11.8 µM.
For `COc1ccc(-c2nc3c(-c4ccccc4)cnn3cc2C)cc1F`, the IC50 is > 20 µM (inactive).
Then `CC(NC(=O)c1cc(Br)ccc1Cl)c1ccccc1` (configuration not stated), with > 20 µM (inactive); and `COc1ccc(-n2c(C)nn(CC3CC3)c2=O)cc1`, with 5.12 µM; and `Brc1ccc(COn2ccnc2)cc1`, with 6.31 µM.
In the case of `S=C(Nc1ccccc1)N1N=CCC1c1ccccc1` (configuration not stated), the IC50 was 7.65 µM.
Then `O=C(CSc1ccc(Cl)cc1)N1N=CCC1c1ccccc1` (configuration not stated), with 16.4 µM.
Then `COc1ccc(/C=N/Nc2ccccn2)cc1OC`, with > 20 µM (inactive); and `Cc1ccc(SCC(=O)N2N=CCC2c2ccccc2)cc1` (configuration not stated), with 11.8 µM.
The value for `c1ccc(C2CC3CC4(CCCC4)N2O3)cc1` (configuration not stated) was 3.81 µM; that for `Cc1cnc(NC(=O)C2(c3ccccc3)CC2)s1` was > 20 µM (inactive); that for `COc1cc(/C=N/Nc2nc3ccccc3[nH]2)cc(Br)c1OCC(=O)N(C)C` was > 20 µM (inactive).
In the case of `O=[N+]([O-])c1ncn(Cc2c(Cl)cccc2Cl)n1`, the IC50 is 13.1 µM.
The value for `COC(C(=O)Nc1ccc(Br)cc1F)c1ccccc1` (configuration not stated) was 10.7 µM; that for `COC(C(=O)Nc1ccc(F)cc1)c1ccccc1` (configuration not stated) was 2.15 µM; that for `CC(=O)N(CC1CCCO1)c1nnc(-c2cnccn2)s1` (configuration not stated) was 5.94 µM.
With `Cc1cc(N/N=C/c2ccncc2)nc2ccccc12`, the IC50 is > 20 µM (inactive).
The value for `CC(=O)N(CC1CCCO1)c1nnc(-c2ccccn2)s1` (configuration not stated) was 9.72 µM; that for `Cc1ccc(Oc2ccccc2/C=C2\SC(=O)N(C)C2=O)cc1` was > 20 µM (inactive).
The value for `O=C(CSc1nnnn1-c1ccccc1)N1N=CCC1c1ccccc1` (configuration not stated) was 6.27 µM; that for `O=C(C1=NNCC1c1ccccc1)C1CO1` (configuration not stated) was 4.94 µM.
As to `c1csc(Cc2nc3ccccc3[nH]2)c1`, the IC50 is 8.85 µM.
The value for `COc1ccc(C2CN=NC2C(=O)c2ccccc2)cc1` (configuration not stated) was 16.4 µM.
Then `Cc1nn(Cc2c(F)cccc2Cl)c(C)c1[N+](=O)[O-]`, with > 20 µM (inactive); and `Clc1ccc(COn2ccnc2)cc1Cl`, with 1.97 µM; and `O=C1NC(=Nc2ccccc2)SC1Cc1cccc(Cl)c1Cl` (configuration not stated), with > 20 µM (inactive).
Then `Cc1ccc2[nH]c3c(c2c1)CCc1cn[nH]c1-3`, with 1.14 µM.
For `O=C1c2ccsc2SCCN1Cc1ccccc1`, the half-maximal inhibitory concentration (IC50) was 6.07 µM.
Then `COC(C(=O)Nc1ccc(S(=O)(=O)N2CCCCC2)cc1)c1ccccc1` (configuration not stated), with > 20 µM (inactive); and `Cc1ccc(NC(=O)CSCc2ccc(F)cc2)cc1`, with > 20 µM (inactive).
Regarding `Cc1cc([N+](=O)[O-])nn1Cc1ccc(F)cc1`, the IC50 was 7.15 µM.
The value for `C=C(C)CSc1nnc2n(Cc3ccccc3)c(=O)c3c4c(sc3n12)CCC4` was > 20 µM (inactive); that for `CN(CC1CCCO1)S(=O)(=O)c1ccc(C(=O)Nc2nccs2)cc1` (configuration not stated) was 12.9 µM; that for `Cc1ccc(Cn2cnc3sc4c(c3c2=O)CCC4)c(C)c1` was > 20 µM (inactive).
Consider `O=C(Nc1nccs1)c1ccc(S(=O)(=O)N2CCCCC2)cc1`, for which the IC50 was > 20 µM (inactive).
Regarding `CC(C)c1ccc(O)c(NC(=O)c2cncc(Br)c2)c1`, the IC50 is > 20 µM (inactive).
Then `O=[N+]([O-])c1ccc(Nc2ccccc2F)nc1`, with 15.5 µM.
Then `Cc1csc(Nc2ccc(Cl)cc2)[n+]1-c1ccc(Cl)cc1`, with > 20 µM (inactive).
The value for `O=C(C1COc2ccccc2O1)N1CCc2ccccc21` (configuration not stated) was 5.82 µM.
For `COC(C(=O)Nc1cccc(F)c1)c1ccccc1` (configuration not stated), the IC50 is 6.43 µM.
The value for `Cc1nnsc1C(=O)NCc1c(F)cccc1Cl` was 7.64 µM.
Then `Cc1nc2oc3ccccc3c(=O)c2c(=O)n1Cc1ccccc1`, with 14.4 µM.
Then `COC(C(=O)Nc1ccc(F)c(F)c1)c1ccccc1` (configuration not stated), with 1.52 µM.
Consider `O=C(Nc1nccs1)c1cc2c(s1)CCCCC2`, for which the IC50 is > 20 µM (inactive).
For `COc1ccc(-n2c(C)nc3sc4c(c3c2=O)CCC4)cc1`, the IC50 is 4.17 µM.
The value for `CC(=O)Nc1ccn(Cc2c(F)cccc2Cl)n1` was 3.52 µM; that for `Cc1ccc(CC(=O)Nc2ncc([N+](=O)[O-])s2)cc1` was > 20 µM (inactive).
The value for `O=C(c1ccc([N+](=O)[O-])cc1)N1CCSC1c1ccccc1Cl` (configuration not stated) was > 20 µM (inactive); that for `Cc1ccc(C)c(C2=NNC(=NCc3ccccc3)SC2)c1` was 15.2 µM; that for `COC(C(=O)Nc1ccccc1F)c1ccccc1` (configuration not stated) was 4.25 µM.
Then `O=C(Nc1ccc(Cl)cc1)N1N=CCC1c1ccccc1` (configuration not stated), with 11.6 µM; and `O=[N+]([O-])c1ccc(Nc2cccc(F)c2)nc1`, with 19.6 µM; and `Cc1ccc(C2CC(=O)NC(SCC(=O)Nc3nccs3)=C2C#N)cc1` (configuration not stated), with > 20 µM (inactive).
Consider `Clc1ccc2[nH]c3c(c2c1)CCc1cn[nH]c1-3`, for which the half-inhibitory concentration (IC50) is 5.28 µM.
Then `COc1ccc(-n2c(C)nc3sc4c(c3c2=O)CCCC4)cc1`, with 13.9 µM; and `O=[N+]([O-])c1ccc(Nc2ccccc2)nc1`, with 15.3 µM; and `O=C(Nc1cccc2ccccc12)N1N=CCC1c1ccccc1` (configuration not stated), with > 20 µM (inactive).
The value for `CN=C(Cc1ccccc1)C1=C(O)CC(C)(C)CC1=O` was 4.76 µM; that for `COc1ccc(-n2cnc3cc(NS(=O)(=O)c4ccccc4)ccc32)cc1` was > 20 µM (inactive); that for `O=C(CN1CCN(C(c2ccccc2)c2ccccc2)CC1)N1N=CCC1c1ccccc1` (configuration not stated) was > 20 µM (inactive).
Then `CC(=O)OC(C(=O)NC1CCCCC1)c1ccc(Cl)c(Cl)c1` (configuration not stated), with > 20 µM (inactive).
`COC(=O)c1ccn(Cc2ccccc2Cl)n1`: the IC50 was 0.881 µM.
The value for `O=C(CSC(=S)N1CCOCC1)N1N=CCC1c1ccccc1` (configuration not stated) was 9.41 µM.
The value for `O=C1NC(Cc2c[nH]c3ccccc23)C(=O)N1CCOc1ccc(F)cc1` (configuration not stated) was 10 µM.
The value for `COc1ccc(/C=N/Nc2nc3ccccc3s2)cc1O` was > 20 µM (inactive); that for `Cc1csc(Nc2ccccc2)[n+]1-c1ccccc1` was > 20 µM (inactive).
With `O=C(C1=NNCC1c1ccc(Cl)cc1)C1CO1` (configuration not stated), the IC50 is 7.86 µM.
The value for `Cc1nn(Cc2ccccc2)c(N)c1C#N` was 9.44 µM; that for `Fc1ccc(C2=NNC(=NCc3ccccc3)SC2)cc1F` was > 20 µM (inactive); that for `O=[N+]([O-])c1ncn(Cc2ccccc2Cl)n1` was 2.51 µM.
Then `C/C(Cl)=C/CN1C(=O)C2C3C=CC(C3)C2C1=O` (configuration not stated), with 6.41 µM; and `O=C(CSCc1ccc([N+](=O)[O-])cc1)NC1CC2CCC1C2` (configuration not stated), with 13.6 µM.
Then `O=C(OC(C(=O)Nc1ccc([N+](=O)[O-])cc1Br)c1ccccc1)c1ccccc1` (configuration not stated), with > 20 µM (inactive).
With `Cc1cnc(NC(=O)C2COc3ccccc3O2)s1` (configuration not stated), the IC50 was > 20 µM (inactive).
Then `Cc1nnsc1C(=O)NNc1c(Cl)cccc1Cl`, with 5.04 µM.
The value for `O=C(Nc1ccc(Cl)cn1)C1COc2ccccc2O1` (configuration not stated) was > 20 µM (inactive); that for `COc1ccc(NC(C)c2ccccc2)cc1` (configuration not stated) was 14.1 µM.
For the molecule `O=[N+]([O-])c1ccc(Nc2ccc(Cl)cc2)nc1`, the IC50 was > 20 µM (inactive).
The value for `Cc1ccc(CN2CCSc3sccc3C2=O)cc1` was 9.28 µM; that for `O=C(O)c1ccc(/C=N/Nc2ccc(C(F)(F)F)cn2)cc1` was 6.32 µM.
As to `O=C(Cn1cnc2ccc(Cl)cc2c1=O)c1cccs1`, the IC50 is > 20 µM (inactive).
In the case of `COc1ccc(/C=C2\N=C(SC)NC2=O)cc1`, the IC50 is > 20 µM (inactive).
Turning to `CC(Nc1nc(-c2ccc3c(c2)NC(=O)CO3)cs1)c1ccccc1` (configuration not stated), the IC50 is > 20 µM (inactive).
As for `COCCNS(=O)(=O)c1ccc(SC)cc1`, the half-maximal inhibitory concentration (IC50) is 9.06 µM.
For `O=C(NCc1c(Cl)cccc1Cl)c1ccc2nnsc2c1`, the IC50 is > 20 µM (inactive).
With `CC(=O)Nc1ccc(/C=N/Nc2nc3ccccc3s2)cc1`, the IC50 is > 20 µM (inactive).
Then `Clc1cccc(Cl)c1Cn1ccc(C2CC2)n1`, with 4.75 µM.
